Results as given in the supplement of paper PMC10307832.

Columns and labels:
Assay in all cases: relative viability (nuclei count vs DMSO), 5 days (fraction); higher = more cells survive
Tanzisertib + Decitabine = compound: O[C@H]1CC[C@H](Nc2ncc3nc(Nc4c(F)cc(F)cc4F)n([C@H]4CCOC4)c3n2)CC1 [Tanzisertib] + Nc1ncn([C@H]2C[C@H](O)[C@@H](CO)O2)c(=O)n1 [Decitabine] (partner 2 µM)
Outline: (§1)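 The day after seeding in 1536-well plates, lung cancer cell lines were treated by pin tool with a single drug, or with a fixed anchor-drug dose together with five library-drug doses (not always all listed) in √10 steps. After 5 days, a combined fix-and-stain solution (final 0.05% Triton X-100, 1% formaldehyde, 1 ug/ml Hoechst) was added. Nuclei counted on 4× images gave relative viability as treated counts over vehicle counts, reported as the median of duplicate plates.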

Tanzisertib + Vorinostat = compound: O[C@H]1CC[C@H](Nc2ncc3nc(Nc4c(F)cc(F)cc4F)n([C@H]4CCOC4)c3n2)CC1 [Tanzisertib] + O=C(CCCCCCC(=O)Nc1ccccc1)NO [Vorinostat] (partner 1 µM)
Outline: as §1

[1] = compound: C[C@@H](N)c1ccc(C(=O)Nc2ccnc3[nH]ccc23)cc1 + CC1(C)CCC(c2ccc(Cl)cc2)=C(CN2CCN(c3ccc(C(=O)NS(=O)(=O)c4ccc(N[C@H](CCN5CCOCC5)CSc5ccccc5)c(S(=O)(=O)C(F)(F)F)c4)cc3)CC2)C1 [Navitoclax] (partner 0.5 µM)
Outline: as §1

Tanzisertib + AZD7762 = compound: O[C@H]1CC[C@H](Nc2ncc3nc(Nc4c(F)cc(F)cc4F)n([C@H]4CCOC4)c3n2)CC1 [Tanzisertib] + NC(=O)Nc1cc(-c2cccc(F)c2)sc1C(=O)N[C@H]1CCCNC1 [AZD7762] (partner 0.2 µM)
Outline: as §1

Row | Cell Line | relative viability (Tanzisertib + Decitabine; first compound 0.08 µM) | relative viability (Tanzisertib + Decitabine; first compound 0.253 µM) | relative viability (Tanzisertib + Decitabine; first compound 0.8 µM) | relative viability (Tanzisertib + Decitabine; first compound 2.53 µM) | relative viability (Tanzisertib + Decitabine; first compound 8 µM) | relative viability (Tanzisertib + Vorinostat; first compound 0.08 µM) | relative viability (Tanzisertib + Vorinostat; first compound 0.253 µM) | relative viability (Tanzisertib + Vorinostat; first compound 0.8 µM) | relative viability (Tanzisertib + Vorinostat; first compound 2.53 µM) | relative viability (Tanzisertib + Vorinostat; first compound 8 µM) | relative viability ([1]; first compound 0.04 µM) | relative viability ([1]; first compound 0.1265 µM) | relative viability ([1]; first compound 0.4 µM) | relative viability ([1]; first compound 1.265 µM) | relative viability ([1]; first compound 4 µM) | relative viability (Tanzisertib + AZD7762; first compound 0.08 µM) | relative viability (Tanzisertib + AZD7762; first compound 0.253 µM) | relative viability (Tanzisertib + AZD7762; first compound 0.8 µM) | relative viability (Tanzisertib + AZD7762; first compound 2.53 µM) | relative viability (Tanzisertib + AZD7762; first compound 8 µM)
1 | LOU-NH91 | 0.869 | 0.82 | 0.837 | 0.805 | 0.635 | 0.948 | 0.924 | 1 | 0.974 | 0.418 | 0.61 | 0.679 | 0.602 | 0.615 | 0.615 | 0.781 | 0.782 | 0.806 | 0.746 | 0.676
2 | PC-14 | 0.261 | 0.23 | 0.212 | 0.192 | 0.202 | 0.75 | 0.735 | 0.701 | 0.627 | 0.357 | 0.963 | 1.04 | 0.984 | 0.935 | 0.808 | 0.476 | 0.531 | 0.367 | 0.386 | 0.213
3 | NCI-H2087 | 0.35 | 0.268 | 0.276 | 0.244 | 0.33 | 0.862 | 0.701 | 0.772 | 0.797 | 1.14 | 0.911 | 0.917 | 0.903 | 0.903 | 0.855 | 1.48 | 1.07 | 1.33 | 1.41 | 1.26
4 | LU99A | 1.03 | 0.88 | 0.984 | 0.874 | 0.911 | 0.565 | 0.447 | 0.51 | 0.559 | 0.519 | 0.834 | 0.851 | 0.967 | 0.839 | 0.798 | 0.299 | 0.42 | 0.431 | 0.322 | 0.407
5 | BEN | 0.707 | 0.766 | 0.782 | 0.702 | 0.57 | 0.593 | 0.583 | 0.613 | 0.588 | 0.611 | 0.0518 | 0.0703 | 0.0684 | 0.0653 | 0.122 | 0.622 | 0.8 | 0.868 | 0.724 | 0.565
6 | NCI-H1975 | 0.406 | 0.41 | 0.295 | 0.373 | 0.39 | 0.743 | 0.761 | 0.71 | 0.704 | 0.656 | 1.13 | 0.978 | 0.995 | 0.652 | 0.434 | 0.697 | 0.794 | 0.752 | 0.653 | 0.54
7 | RERF-LC-KJ | 0.75 | 0.771 | 0.705 | 0.688 | 0.628 | 0.779 | 0.712 | 0.743 | 0.573 | 0.56 | 0.962 | 0.99 | 1.42 | 1.1 | 0.95 | 0.987 | 1.02 | 0.904 | 0.93 | 0.571
8 | NCI-H441 | 0.237 | 0.239 | 0.261 | 0.238 | 0.257 | 0.895 | 0.854 | 0.731 | 0.72 | 0.804 | 0.571 | 0.546 | 0.477 | 0.624 | 0.571 | 1.21 | 0.989 | 1.07 | 1.11 | 1.08
9 | HCC-78 | 0.683 | 0.675 | 0.666 | 0.704 | 0.622 | 0.505 | 0.455 | 0.461 | 0.403 | 0.447 | 1.08 | 0.79 | 1.2 | 1.11 | 0.782 | 0.694 | 0.723 | 0.634 | 0.474 | 0.5
10 | NCI-H1915 | 0.288 | 0.275 | 0.264 | 0.257 | 0.279 | 0.569 | 0.535 | 0.46 | 0.503 | 0.487 | 0.755 | 0.792 | 0.817 |  | 0.723 | 0.716 | 0.675 | 0.709 | 0.714 | 0.653
